Experimental data: patent publication US20210352900A1, “Method for Controlling PPO Resistant Weeds” (BASF SE, priority 2016, published 2021)

Test system: Amaranthus tuberculatus (AMATU, tall waterhemp), PPO resistant biotype 2 containing the ΔG210 mutation (w.3)
Format: in vivo
Details: azafenidin: in comparison to sensitive biotypes

CCc1ccc(COc2ccc(-n3c(=O)cc(C(F)(F)F)n(C)c3=O)cc2)c(OC(C)C(=O)OC)c1 (centres unmarked) [(I).1, benzfendizone]
activity on / control of resistant weeds containing the ΔG210 mutation (w.3), in words: very good activity

C#CCOc1cc(-n2nc3n(c2=O)CCCC3)c(Cl)cc1Cl [azafenidin, reference compound]
activity on / control of resistant weeds containing the ΔG210 mutation (w.3), in words: much weaker control
